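Cultured in 96-well plates, cells were exposed to test compound for 48 hours across five concentrations. GI50: concentration for 50% inhibition of growth. TGI marks complete inhibition of growth.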
Key:
Assay in all cases: DTP human tumour cell line panel, 48 h
[1] = test system: 786-0 renal
[2] = test system: A498 renal
[3] = test system: A549 NSCLC
[4] = test system: ACHN renal
[5] = test system: BT-549 breast
[6] = test system: CAKI-1 renal
[7] = test system: CCRF-CEM leukemia
[8] = test system: COLO 205 colon
[9] = test system: DU-145 prostate
[10] = test system: EKVX NSCLC
[11] = test system: HCC-2998 colon
[12] = test system: HCT-116 colon
[13] = test system: HCT-15 colon
[14] = test system: HL-60(TB) leukemia
[15] = test system: HOP-62 NSCLC
[16] = test system: HOP-92 NSCLC
[17] = test system: HS 578T breast
[18] = test system: HT29 colon
[19] = test system: IGROV1 ovarian
[20] = test system: K-562 leukemia
[21] = test system: KM12 colon
[22] = test system: LOX IMVI melanoma
[23] = test system: M14 melanoma
[24] = test system: MALME-3M melanoma
[25] = test system: MCF7 breast
[26] = test system: MDA-MB-231 breast
[27] = test system: MDA-MB-435
[28] = test system: MDA-MB-468 breast
[29] = test system: MOLT-4 leukemia
[30] = test system: NCI-H226 lung
[31] = test system: NCI-H23 lung
[32] = test system: NCI-H460 lung
[33] = test system: NCI-H522 lung
[34] = test system: OVCAR-3 ovarian
[35] = test system: OVCAR-4 ovarian
[36] = test system: OVCAR-5 ovarian
[37] = test system: OVCAR-8 ovarian
[38] = test system: PC-3 prostate
[39] = test system: RPMI-8226 leukemia
[40] = test system: RXF 393 renal
[41] = test system: SF-268 CNS
[42] = test system: SF-295 CNS
[43] = test system: SF-539 CNS
[44] = test system: SK-MEL-2 melanoma
[45] = test system: SK-MEL-28 melanoma
[46] = test system: SK-MEL-5 melanoma
[47] = test system: SK-OV-3 ovarian
[48] = test system: SN12C renal
[49] = test system: SNB-19 CNS
[50] = test system: SR leukemia
[51] = test system: SW-620 colon
[52] = test system: T-47D breast
[53] = test system: TK-10 renal
[54] = test system: U251 CNS
[55] = test system: UACC-257 melanoma
[56] = test system: UACC-62 melanoma
[57] = test system: UO-31 renal

## CC(C)(C)c1cc(-c2cc(-c3ccccc3)[nH]c(=O)c2C#N)cc(C(C)(C)C)c1
[1]
  GI50: 5.14 µM
  TGI: 18.2 µM
[2]
  GI50: 10.1 µM
  TGI: 26.1 µM
[3]
  GI50: 3.71 µM
  TGI: 15.9 µM
[4]
  GI50: 2.7 µM
  TGI: 7.91 µM
[5]
  GI50: 4.12 µM
  TGI: 19 µM
[6]
  GI50: 2.81 µM
  TGI: 11 µM
[7]
  GI50: 36.8 µM
  TGI: > 100 µM
[8]
  GI50: 37.6 µM
  TGI: > 100 µM
[9]
  GI50: 11.3 µM
  TGI: 31.6 µM
[10]
  GI50: 6.58 µM
  TGI: 22.6 µM
[11]
  GI50: 38.8 µM
  TGI: > 100 µM
[12]
  GI50: 21.4 µM
  TGI: 61.4 µM
[13]
  GI50: 17.8 µM
  TGI: > 100 µM
[14]
  GI50: 49.2 µM
  TGI: > 100 µM
[15]
  GI50: 3.25 µM
  TGI: 11.9 µM
[16]
  GI50: 2.83 µM
  TGI: 8.64 µM
[17]
  GI50: 2.63 µM
  TGI: 8.85 µM
[18]
  GI50: 23.4 µM
  TGI: 62 µM
[19]
  GI50: 3.9 µM
  TGI: 17.6 µM
[20]
  GI50: 17.8 µM
  TGI: > 100 µM
[21]
  GI50: > 100 µM
  TGI: > 100 µM
[22]
  GI50: 2.02 µM
  TGI: 4.53 µM
[23]
  GI50: 12 µM
  TGI: 38.3 µM
[24]
  GI50: 4.53 µM
  TGI: 17 µM
[25]
  GI50: 12.9 µM
  TGI: 39.1 µM
[26]
  GI50: 2.72 µM
  TGI: 8.82 µM
[27]
  GI50: 14.6 µM
  TGI: 43.1 µM
[28]
  GI50: 10.3 µM
  TGI: 29.7 µM
[29]
  GI50: 14.2 µM
  TGI: > 100 µM
[30]
  GI50: 2.69 µM
  TGI: 10.3 µM
[31]
  GI50: 6.22 µM
  TGI: 22.4 µM
[32]
  GI50: 3.56 µM
  TGI: 13.1 µM
[33]
  GI50: 15.1 µM
  TGI: 73.3 µM
[34]
  GI50: 12.4 µM
  TGI: 41.5 µM
[35]
  GI50: 2.85 µM
  TGI: 10.1 µM
[36]
  GI50: 15.2 µM
  TGI: 93.2 µM
[37]
  GI50: 3.5 µM
  TGI: 13.9 µM
[38]
  GI50: 11.5 µM
  TGI: 36.3 µM
[39]
  GI50: 37.7 µM
  TGI: > 100 µM
[40]
  GI50: 2.4 µM
  TGI: 7.03 µM
[41]
  GI50: 7.73 µM
  TGI: 46.3 µM
[42]
  GI50: 2.05 µM
  TGI: 4.81 µM
[43]
  GI50: 5.11 µM
  TGI: 17.7 µM
[44]
  GI50: 12 µM
  TGI: 26.5 µM
[45]
  GI50: 12.8 µM
  TGI: 30.5 µM
[46]
  GI50: 14.3 µM
  TGI: 34.1 µM
[47]
  GI50: 5.8 µM
  TGI: 22 µM
[48]
  GI50: 4.09 µM
  TGI: 25.7 µM
[49]
  GI50: 3.03 µM
  TGI: 10.8 µM
[50]
  GI50: 19.4 µM
  TGI: > 100 µM
[51]
  GI50: 18.6 µM
  TGI: > 100 µM
[52]
  GI50: 6.71 µM
  TGI: 45.8 µM
[53]
  GI50: 4.97 µM
  TGI: 19.9 µM
[54]
  GI50: 3.05 µM
  TGI: 10.8 µM
[55]
  GI50: 13.5 µM
  TGI: 36.2 µM
[56]
  GI50: 7.98 µM
  TGI: 22.7 µM
[57]
  GI50: 4.11 µM
  TGI: 19.1 µM

From PubChem BioAssay (NCI)
